Test results from publication PMC4494889 (Cell reports, 2015).
Changes are numbered by the printed parent chain. Like-named read-outs stand apart in the source and are kept apart here.

How the values were obtained:
RIPK3 [1] = molecular target: T1, RIPK3 (Homo sapiens, UniProt Q9Y572); test: ADP-Glo in vitro kinase assay, recombinant RIPK3; format: biochemical
RIPK2 = RIPK2 (Homo sapiens, UniProt O43353); test: ADP-Glo in vitro kinase assay, recombinant RIPK2; format: biochemical
[2] = tested on: FADD-deficient Jurkat cells; test: Jurkat cell necroptosis assay; conditions: for IC50: read-out: IC50, nM Jurkat cell necroptosis assay (RIPK1/3-dependent)
RIPK1 [3] = molecular target: T2, RIPK1 (Homo sapiens, UniProt Q13546); test: ADP-Glo in vitro kinase assay, recombinant RIPK1
T2 sequence (Q13546 1-327): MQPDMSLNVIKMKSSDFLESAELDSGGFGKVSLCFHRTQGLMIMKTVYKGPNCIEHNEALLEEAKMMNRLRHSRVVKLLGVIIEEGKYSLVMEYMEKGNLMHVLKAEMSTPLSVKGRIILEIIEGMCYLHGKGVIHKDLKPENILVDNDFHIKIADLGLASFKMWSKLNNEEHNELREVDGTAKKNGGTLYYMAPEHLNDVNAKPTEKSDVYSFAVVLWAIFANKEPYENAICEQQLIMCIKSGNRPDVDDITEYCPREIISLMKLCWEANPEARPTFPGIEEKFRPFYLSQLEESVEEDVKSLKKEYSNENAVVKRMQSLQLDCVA

[4] = molecular target: T3, RIPK1/RIPK3 “necrosome” complex (Mus musculus, UniProt Q60855); test: Necrosome complex formation, co-IP assay in TCZ-stimulated MEFs; format: cell-based; conditions: TCZ 6 hr, RIPK3 immunoprecipitation
T3 sequence (Q60855 1-656): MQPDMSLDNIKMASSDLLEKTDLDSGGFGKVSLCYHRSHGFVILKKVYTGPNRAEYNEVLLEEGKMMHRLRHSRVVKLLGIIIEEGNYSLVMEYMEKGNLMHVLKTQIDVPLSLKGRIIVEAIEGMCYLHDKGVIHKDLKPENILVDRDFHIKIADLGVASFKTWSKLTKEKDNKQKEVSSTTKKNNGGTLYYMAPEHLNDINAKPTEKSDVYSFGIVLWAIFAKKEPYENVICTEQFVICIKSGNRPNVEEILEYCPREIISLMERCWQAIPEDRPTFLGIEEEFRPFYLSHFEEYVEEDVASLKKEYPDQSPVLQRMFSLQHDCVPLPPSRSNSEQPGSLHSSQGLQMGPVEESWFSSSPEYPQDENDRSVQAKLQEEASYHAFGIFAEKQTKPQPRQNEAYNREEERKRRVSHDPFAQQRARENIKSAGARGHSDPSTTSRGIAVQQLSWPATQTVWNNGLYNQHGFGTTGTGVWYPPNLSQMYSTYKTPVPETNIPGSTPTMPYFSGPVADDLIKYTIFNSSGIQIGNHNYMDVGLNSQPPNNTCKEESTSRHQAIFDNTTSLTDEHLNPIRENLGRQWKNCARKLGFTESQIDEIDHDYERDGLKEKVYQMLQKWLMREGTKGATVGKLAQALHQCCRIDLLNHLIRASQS

MEFs [5] = test: TCZ; format: cell-based; conditions: 50 ng/ml mouse TNFα, 200 ng/ml cycloheximide, 25 μM zVAD.fmk, 18 hr
RIPK1−/− MEFs = test: IFNγ-induced RIPK3-dependent cell death; conditions: 10 ng/ml IFNγ, 24 hr
MEFs [6] = test: RIPK1-dependent apoptosis of MEFs; conditions: 10 ng/ml mouse TNFα + 100 nM 5z-7-oxozeaenol, 24 hr
MEFs [7] = test: poly; format: cell-based, mouse; conditions: 5 μg/ml poly(I:C), 50 μM zVAD.fmk, 24 hr
RIPK1 [8] = molecular target: T2, RIPK1; test: 32P autophosphorylation assay, recombinant RIPK1; format: biochemical; conditions: 2 μM kinase
RIPK3 [9] = molecular target: T1, RIPK3; test: 32P autophosphorylation assay, recombinant RIPK3; format: biochemical; conditions: 2 μM kinase
[10] = tested on: TNFα mRNA in FADD-deficient Jurkat cells; test: RIPK1-dependent TNFα mRNA upregulation, qRT-PCR, Jurkat; format: cell-based; conditions: 10 ng/ml human TNFα, 8 hr
[11] = tested on: TNFα toxicity in C57BL6/J mice; test: TNF-induced injury in vivo; conditions: for protection from TNFα toxicity in vivo: 15 min before 5 μg/mouse mouse TNFα i.v.; for activity with respect to survival and injury markers: 0.4 mg/kg i.p., versus Nec-1
TNFα mRNA in iBMM cells = test: RIPK1-dependent TNFα mRNA upregulation, qRT-PCR, iBMM; format: cell-based, mouse; conditions: 10 ng/ml LPS and 50 μM zVAD.fmk, 7 hr
Abl = Abl (Homo sapiens, UniProt P00519); test: ADP-Glo in vitro kinase assay, recombinant Abl; format: biochemical; conditions: read-out: IC50, nM ADPGlo, Abl; recombinant Abl (1 ng)
DYRK1b = DYRK1b (Homo sapiens, UniProt Q9Y463); test: ScanEDGE; format: binding; conditions: 1 μM
RIPK1 [12] = molecular target: T4, RIPK1 (Homo sapiens, UniProt Q13546); test: ScanEDGE; format: binding; conditions: 1 μM
T4 sequence (Q13546 1-671): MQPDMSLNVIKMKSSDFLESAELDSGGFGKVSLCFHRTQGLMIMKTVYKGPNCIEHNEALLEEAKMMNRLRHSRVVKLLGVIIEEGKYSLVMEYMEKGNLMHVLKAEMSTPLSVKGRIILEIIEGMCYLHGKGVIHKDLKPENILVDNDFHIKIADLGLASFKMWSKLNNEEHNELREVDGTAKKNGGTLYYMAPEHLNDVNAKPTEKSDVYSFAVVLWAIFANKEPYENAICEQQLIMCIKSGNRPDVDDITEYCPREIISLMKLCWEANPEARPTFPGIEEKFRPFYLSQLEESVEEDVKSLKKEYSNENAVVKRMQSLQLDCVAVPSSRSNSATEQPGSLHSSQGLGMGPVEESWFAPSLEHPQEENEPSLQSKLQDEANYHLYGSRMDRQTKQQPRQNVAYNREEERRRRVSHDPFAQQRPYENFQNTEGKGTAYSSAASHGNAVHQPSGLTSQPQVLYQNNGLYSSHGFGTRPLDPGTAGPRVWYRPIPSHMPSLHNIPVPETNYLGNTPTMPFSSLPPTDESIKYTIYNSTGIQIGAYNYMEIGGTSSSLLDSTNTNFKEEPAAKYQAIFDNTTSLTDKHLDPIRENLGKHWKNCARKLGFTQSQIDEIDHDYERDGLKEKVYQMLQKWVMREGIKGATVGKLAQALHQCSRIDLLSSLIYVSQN

[13] = tested on: diversity set of 97 kinases (90 wild type kinase and 7 mutants); format: binding, human; conditions: 1 μM
L157F/M92T RIPK1 = molecular target: T5, L157F/M92T RIPK1 (Homo sapiens, UniProt Q13546, L157F/M92T); test: 32P autophosphorylation assay, L157F/M92T RIPK1; format: biochemical; conditions: FLAG-tagged kinase (a.a. 1–327) from HEK293T cells
T5 sequence (Q13546 1-327 M92T/L157F): T2 sequence (Q13546 1-327) with M92T, L157F

RIPK1 [14] = molecular target: T2, RIPK1; test: HTRF assay of RIPK1; format: biochemical
[15] = read-out: IC50, nM ADPGlo, RIPK3, recombinant RIPK3 (20 ng)
[16] = read-out: IC50, nM ADPGlo, RIPK2, recombinant RIPK2 (10 ng)
[17] = read-out: IC50, nM ADPGlo, RIPK1, recombinant RIPK1 (20 ng)

Chain of Abl (P00519 whole entry, species assumed): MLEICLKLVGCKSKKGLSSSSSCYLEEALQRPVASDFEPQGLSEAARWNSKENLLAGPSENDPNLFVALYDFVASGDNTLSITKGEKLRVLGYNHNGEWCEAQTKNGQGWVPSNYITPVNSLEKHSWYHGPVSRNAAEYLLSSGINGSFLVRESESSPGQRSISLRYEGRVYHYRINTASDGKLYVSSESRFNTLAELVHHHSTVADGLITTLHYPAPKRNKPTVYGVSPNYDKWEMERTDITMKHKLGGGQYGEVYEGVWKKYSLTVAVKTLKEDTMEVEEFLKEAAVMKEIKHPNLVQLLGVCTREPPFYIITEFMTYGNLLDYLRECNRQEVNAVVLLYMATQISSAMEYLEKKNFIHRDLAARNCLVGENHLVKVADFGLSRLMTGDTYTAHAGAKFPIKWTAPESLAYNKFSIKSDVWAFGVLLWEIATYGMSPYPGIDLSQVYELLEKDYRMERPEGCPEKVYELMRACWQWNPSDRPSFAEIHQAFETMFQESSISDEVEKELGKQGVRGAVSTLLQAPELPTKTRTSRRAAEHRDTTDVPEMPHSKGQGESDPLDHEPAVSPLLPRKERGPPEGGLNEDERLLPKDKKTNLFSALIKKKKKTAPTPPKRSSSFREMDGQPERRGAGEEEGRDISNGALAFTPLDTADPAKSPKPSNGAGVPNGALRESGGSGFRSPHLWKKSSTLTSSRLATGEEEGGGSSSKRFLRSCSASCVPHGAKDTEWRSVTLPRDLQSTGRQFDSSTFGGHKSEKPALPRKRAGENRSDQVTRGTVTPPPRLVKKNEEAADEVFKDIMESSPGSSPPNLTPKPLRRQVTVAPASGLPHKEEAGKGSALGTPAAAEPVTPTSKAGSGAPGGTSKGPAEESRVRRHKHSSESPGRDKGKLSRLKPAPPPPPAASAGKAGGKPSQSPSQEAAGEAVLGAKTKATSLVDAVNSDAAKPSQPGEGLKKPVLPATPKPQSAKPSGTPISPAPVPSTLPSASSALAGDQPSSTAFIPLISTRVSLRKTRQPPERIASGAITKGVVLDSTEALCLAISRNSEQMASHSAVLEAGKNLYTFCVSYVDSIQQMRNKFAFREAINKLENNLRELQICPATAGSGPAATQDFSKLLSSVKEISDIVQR
Chain of RIPK2 (O43353 whole entry, species assumed): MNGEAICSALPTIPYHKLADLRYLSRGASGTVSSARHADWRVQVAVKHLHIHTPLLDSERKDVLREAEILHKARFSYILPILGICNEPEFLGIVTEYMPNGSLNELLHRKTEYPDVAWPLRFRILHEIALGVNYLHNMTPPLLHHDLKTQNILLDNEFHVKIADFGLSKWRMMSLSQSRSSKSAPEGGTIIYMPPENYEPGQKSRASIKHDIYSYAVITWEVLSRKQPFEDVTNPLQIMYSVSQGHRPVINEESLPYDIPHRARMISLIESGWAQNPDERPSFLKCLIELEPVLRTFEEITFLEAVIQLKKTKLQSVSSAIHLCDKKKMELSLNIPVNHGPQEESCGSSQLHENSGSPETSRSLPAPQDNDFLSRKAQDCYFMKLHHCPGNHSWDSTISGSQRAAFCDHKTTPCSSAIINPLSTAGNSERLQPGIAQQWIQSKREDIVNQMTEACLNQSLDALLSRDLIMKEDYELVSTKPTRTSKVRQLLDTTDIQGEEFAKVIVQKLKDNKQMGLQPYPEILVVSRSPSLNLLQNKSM
T1 sequence (Q9Y572 whole entry, species assumed): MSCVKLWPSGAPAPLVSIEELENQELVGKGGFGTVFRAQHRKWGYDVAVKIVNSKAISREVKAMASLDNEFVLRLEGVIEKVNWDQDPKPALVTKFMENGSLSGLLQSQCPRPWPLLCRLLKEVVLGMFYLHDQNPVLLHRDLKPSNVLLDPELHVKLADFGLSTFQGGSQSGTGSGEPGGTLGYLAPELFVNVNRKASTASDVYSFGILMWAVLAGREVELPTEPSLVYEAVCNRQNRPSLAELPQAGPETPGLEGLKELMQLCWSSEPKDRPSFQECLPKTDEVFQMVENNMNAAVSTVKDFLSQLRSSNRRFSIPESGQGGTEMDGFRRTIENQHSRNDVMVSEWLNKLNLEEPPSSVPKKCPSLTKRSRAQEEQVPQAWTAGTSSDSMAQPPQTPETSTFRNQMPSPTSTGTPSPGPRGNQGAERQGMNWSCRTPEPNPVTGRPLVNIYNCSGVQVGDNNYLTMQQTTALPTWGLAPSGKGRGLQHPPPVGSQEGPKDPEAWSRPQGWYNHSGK
Chain of DYRK1b (Q9Y463 whole entry): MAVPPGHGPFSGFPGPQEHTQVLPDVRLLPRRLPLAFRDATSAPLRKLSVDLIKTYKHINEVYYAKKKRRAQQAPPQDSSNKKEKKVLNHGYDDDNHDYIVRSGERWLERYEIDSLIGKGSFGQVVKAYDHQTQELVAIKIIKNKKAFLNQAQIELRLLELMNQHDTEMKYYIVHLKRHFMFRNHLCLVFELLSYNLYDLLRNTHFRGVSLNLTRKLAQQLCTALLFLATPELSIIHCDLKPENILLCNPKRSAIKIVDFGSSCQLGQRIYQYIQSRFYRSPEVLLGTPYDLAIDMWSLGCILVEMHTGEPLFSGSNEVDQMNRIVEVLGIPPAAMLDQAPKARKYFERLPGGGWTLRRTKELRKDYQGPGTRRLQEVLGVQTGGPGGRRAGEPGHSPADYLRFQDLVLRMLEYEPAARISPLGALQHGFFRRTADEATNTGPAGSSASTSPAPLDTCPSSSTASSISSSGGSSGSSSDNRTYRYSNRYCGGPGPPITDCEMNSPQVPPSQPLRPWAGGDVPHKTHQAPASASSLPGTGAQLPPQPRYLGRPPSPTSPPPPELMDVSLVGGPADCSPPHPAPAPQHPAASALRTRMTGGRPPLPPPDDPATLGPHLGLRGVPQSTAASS

Compound	IC50 (RIPK3 [1]; [15]) [nM]	IC50 (RIPK2; [16]) [nM]	IC50 ([2]; 10 ng/ml human TNFα, 24 hr) [nM]	inhibition of necrosome complex formation [4]	inhibition of IFNγ-induced cell death (RIPK1−/− MEFs)	inhibition of RIPK1 in 32P autophosphorylation assay (RIPK1 [8])	inhibition of RIPK3 in 32P autophosphorylation assay (RIPK3 [9])	inhibition of TNFα mRNA upregulation, Jurkat cells [10]	protection from TNFα toxicity in vivo ([11]; 1 mg/kg i.p.)	inhibition of TNFα mRNA upregulation, immortalized macrophages (TNFα mRNA in iBMM cells)	IC50 (Abl) [nM]	further results
CN1CCN(Cc2ccc(NC(=O)c3cccc(C#Cc4cnc5cccnn45)c3)cc2C(F)(F)F)CC1 [CS1]	7.4	63	219									IC50 (RIPK1 [3]; [17]): 42 nM
CNC(=O)c1cc(Oc2ccc(NC(=O)Nc3cc(C(C)(C)C)nn3-c3ccc4ncccc4c3)c(F)c2)ccn1 [DCC-2036]												IC50 (RIPK3 [1]): 18 nM; IC50 (RIPK2): 520 nM; cellular activity, fold lower than ponatinib ([2]; versus ponatinib): > 10 fold; IC50 (RIPK1 [3]): 5.7 nM
Cc1cc(-c2cnc(N)c3c(-c4ccc5scnc5c4)csc23)n(C)n1 [GSK-843]				not affected								protection from TCZ-induced cell death (MEFs [5]): efficiently protecting cells
CC(C)S(=O)(=O)c1ccc2nccc(Nc3ccc4scnc4c3)c2c1 [GSK-872]				not affected	blockade of cell death							protection from TCZ-induced cell death (MEFs [5]): efficiently protecting cells; protection from RIPK1-dependent, RIPK3-independent apoptosis (MEFs [6]): did not inhibit RIPK1-dependent apoptosis; inhibition of poly(I:C)/zVAD.fmk-induced cell death (MEFs [7]): inhibit
Cc1ccc(NC(=O)c2ccc(CN3CCN(C)CC3)cc2)cc1Nc1nccc(-c2cccnc2)n1 [Gleevec, Imatinib]					Neither Gleevec nor Nilotininb	neither inhibited	neither inhibited					prevention of necroptosis ([2]; 10 ng/ml human TNFα, 24 hr): nor prevented necroptosis
CN1C(=O)NC(Cc2c[nH]c3c(Cl)cccc23)C1=O (centres unmarked) [Nec-1, 7-Cl-O-Nec-1]	> 10000	> 10000	210	efficiently blocked necrosome assembly		only inhibited RIPK1	only inhibited RIPK1	inhibited	significant protection from injury	inhibited	> 10000	circulating levels of IL-6 ([11]; 1 mg/kg i.p.): reduced; survival of the animals ([11]; 1 mg/kg i.p.): prevented death of the animals; inhibition of poly(I:C)/zVAD.fmk-induced cell death (MEFs [7]): marginal protection
COc1ccc2c(c1)C1=NN(C(C)=O)C(c3ccc(F)cc3)C1CC2 (centres unmarked) [Nec-3]	> 10000	> 10000	260								> 10000	IC50 (RIPK1 [3]; [17]): 840 nM
Cc1cn(-c2cc(NC(=O)c3ccc(C)c(Nc4nccc(-c5cccnc5)n4)c3)cc(C(F)(F)F)c2)cn1 [Nilotininb]					Neither Gleevec nor Nilotininb							
Cc1ccc(CCCCN2C(=O)NC(Cc3c[nH]c4c(Cl)cccc34)C2=O)cc1C#Cc1cnc2cccnn12 (centres unmarked) [PN10]		1400		efficiently inhibited				efficiently inhibited	fully protective	efficiently inhibited	> 10000	inhibition of DYRK1b in ScanEDGE panel (DYRK1b): 79%; activity with respect to survival and injury markers [11]: significantly higher activity than Nec-1; Maximal protection from TCZ-induced cell death (MEFs [5]): ~ 85%; inhibition of RIPK1 in ScanEDGE panel (RIPK1 [12]): > 99%; inhibition of other kinases of the ScanEDGE panel [13]: No other kinase was inhibited >65%
Cc1ccc(C(=O)Nc2ccc(CN3CCN(C)CC3)c(C(F)(F)F)c2)cc1C#Cc1cnc2cccnn12 [Ponatinib, ponatinib]				substantial, but lower activity		inhibition	inhibition	efficiently inhibited	completely prevented toxicity of TNFα	efficiently inhibited		activity with respect to survival and injury markers [11]: significantly higher activity than Nec-1; inhibition of L157F/M92T RIPK1 in 32P autophosphorylation assay (L157F/M92T RIPK1): inhibited; inhibition of RIPK1 in HTRF assay (RIPK1 [14]): inhibition; protection from RIPK1-dependent, RIPK3-independent apoptosis (MEFs [6]): protected
